In patent US20040127403A1, “Methods for treating and preventing Gram-positive bacteremias” (priority 2002, published 2004):

Tested on: E. faecium A6345 Line-R
Test: MIC, NCCLS broth microdilution
Assay type: cell-based
Protocol: The efficacy of ramoplanin was tested against recently isolated VRE that are resistant to linezolid and quinupristin/dalfopristin. The culture media containing ramoplanin was supplemented with 0.02% bovine serum albumin (BSA) to prevent ramoplanin binding to the plastic. MIC values were determined in both cation-adjusted Mueller-Hinton broth (CAMHB) and trypticase soy broth (TSB) by the National Committee for Clinical Laboratory Standards (NCCLS) broth microdilution method. Macromolecular biosynthesis experiments were done by following the incorporation of carbon-14-labeled N-acetylglucosamine, acetic acid, amino acids, uridine, and thymidine into peptidoglycan, fatty acid, protein, RNA and DNA, respectively.

[1] = E. faecium A6345 Line-R. as printed, second row of Table 3
[2] = E. faecium A6345 Line-R., first row of Table 3

Compound | reference MIC for strains used for killing curve [1] | reference MIC for strains used for killing curve [2]
O=C(N[C@H](CO)[C@H](O)c1ccc([N+](=O)[O-])cc1)C(Cl)Cl [Chloramphenicol] | 16 µg/mL | 16 µg/mL
CO[C@H]1/C=C/O[C@@]2(C)Oc3c(C)c(O)c4c(O)c(c(/C=N/N5CCN(C)CC5)c(O)c4c3C2=O)NC(=O)/C(C)=C\C=C\[C@H](C)[C@H](O)[C@@H](C)[C@@H](O)[C@@H](C)[C@H](OC(C)=O)[C@@H]1C [Rifampin] | 0.03 µg/mL | 16 µg/mL
